The term logP denotes the decadic logarithm of the partition coefficient of the neutral form, usually between octanol and water. The low end stands for a more hydrophilic compound, the high end for a more lipophilic compound.

The data set is described as follows: method code SF, from DOI: 10.1021/jf00121a034.
As to `CON(C)C(=O)Nc1cccc(C(F)(F)F)c1`, the lipophilicity (logP) turned out to be 2.64.

`CON(C)C(=O)Nc1cccc(OCCCCOc2ccccc2)c1` displayed a logP of 3.86.

For the molecule `CCCCc1cccc(NC(=O)N(C)C)c1`, the logP was found to be 3.23.

For `CON(C)C(=O)Nc1ccc(OCCCCOc2ccccc2)cc1`, the log partition coefficient (logP) amounted to 3.86.

Consider `CON(C)C(=O)Nc1cccc(OCC(=O)C23CC4CC(CC(C4)C2)C3)c1`, for which the logP was determined as 3.79.

Consider `CON(C)C(=O)Nc1ccc(C2CCCCC2)cc1`, for which the log partition coefficient (logP) is 4.08.

`CON(C)C(=O)Nc1ccc(C=C(C#N)C#N)cc1`: the logP was found to be 2.19.

The molecule `CON(C)C(=O)Nc1ccc(OCCC2CCCCC2)cc1` yielded a log partition coefficient (logP) of 4.46.

`CON(C)C(=O)Nc1ccc(CCCCc2ccccc2)cc1` yielded a logP of 5.15.

Take `CON(C)C(=O)Nc1cccc(CO)c1`: the logP stood at 0.62.

Regarding `CON(C)C(=O)Nc1ccc(OCc2ccccc2)cc1`, the logP was 3.11.

As for `CON(C)C(=O)Nc1cccc([N+](=O)[O-])c1`, the logP was determined as 1.64.

As to `CON(C)C(=O)Nc1ccc(CCCc2ccccc2)cc1`, the logP amounted to 4.67.

On to `CON(C)C(=O)Nc1cccc(C(C)(C)C)c1`, for which the lipophilicity (logP) stood at 3.21.

`CON(C)C(=O)Nc1ccc(OCC(=O)C23CC4CC(C2)C4C3)c(Cl)c1` (configuration not stated) returned a logP of 4.48.

Consider `CN(C)C(=O)Nc1ccc(C2CCCCC2)cc1`, for which the lipophilicity (logP) was found to be 3.83.

`CN(C)C(=O)Nc1cccc(N)c1`: the logP was -0.1.

`CON(C)C(=O)Nc1ccccc1` gave a log partition coefficient (logP) of 1.29.

For the molecule `CON(C)C(=O)Nc1ccc(N)cc1`, the logP is -0.16.

`CCCCCCCCCCCCOc1ccc(NC(=O)N(C)C)cc1` showed a log partition coefficient (logP) of 6.93.

On to `CON(C)C(=O)Nc1ccc(C(C)C)cc1`, for which the lipophilicity (logP) turned out to be 2.95.

For `CON(C)C(=O)Nc1ccc(OCCc2cccc3ccccc23)cc1`, the logP turned out to be 4.81.

Regarding `CCOC(=O)c1ccc(NC(=O)N(C)OC)cc1`, the lipophilicity (logP) was 2.24.

Regarding `CN(C)C(=O)Nc1cccc([N+](=O)[O-])c1`, the lipophilicity (logP) was found to be 1.46.

`CN(C)C(=O)Nc1cccc(O)c1` displayed a log partition coefficient (logP) of 0.51.

The molecule `CON(C)C(=O)Nc1cccc(F)c1` registered a log partition coefficient (logP) of 1.68.

`CON(C)C(=O)Nc1ccc(OCC(=O)C23CC4CC(CC(C4)C2)C3)cc1` yielded a logP of 3.53.

`CON(C)C(=O)Nc1ccc(CCCc2ccc(-c3ccccc3)cc2)cc1` displayed a log partition coefficient (logP) of 6.54.

In the case of `CON(C)C(=O)Nc1ccc(OC(C)CC2CCCCC2)cc1` (configuration not stated), the lipophilicity (logP) turned out to be 4.51.

Turning to `CON(C)C(=O)Nc1cccc(O)c1`, the logP turned out to be 0.82.

The molecule `CC(C)c1ccc(NC(=O)N(C)C)cc1` registered a logP of 2.87.

In turn, `CON(C)C(=O)Nc1ccc([N+](=O)[O-])cc1` gave a logP of 1.74.

`CON(C)C(=O)Nc1ccc(C(C)=O)cc1` yielded a logP of 1.22.

The molecule `CON(C)C(=O)Nc1ccc(F)cc1` yielded a logP of 1.46.

As to `CON(C)C(=O)Nc1ccc(NS(C)(=O)=O)cc1`, the logP was 0.14.

The molecule `CON(C)C(=O)Nc1ccc(OCCc2ccc(C)cc2)cc1` registered a lipophilicity (logP) of 3.81.

Molecule `CC(=O)c1cccc(NC(=O)N(C)C)c1` displayed a logP of 0.95.

`CN(C)C(=O)Nc1cccc(OCCc2ccccc2)c1` registered a log partition coefficient (logP) of 3.39.

As for `CN(C)C(=O)Nc1ccc(C(=O)c2ccccc2)cc1`, the logP was 2.59.

In the case of `CCNc1ccc(NC(=O)N(C)OC)cc1`, the logP is 0.83.

`CON(C)C(=O)Nc1ccc(C(=O)c2ccccc2)cc1` came in with a logP of 2.86.

Regarding `CON(C)C(=O)Nc1ccc(CCCc2ccc(Cl)cc2)cc1`, the lipophilicity (logP) was determined as 5.35.
